These compounds were tested against glutamate-activated channels of the GRIN1/2A subtype stably transfected in HEK 293 cells (Homo sapiens (Human), UniProt Q05586+Q12879) (assay: Automated patch-clamp system (QPatch HTX), percent potentiation at 1 μM). Conditions: HEK293, 1 μM test compound, 300 μM NMDA with 8 μM glycine, HEK 293 GRIN1/2A, read-out: GluN2A PCA % potentiation at 1 μM.
Type: cell-based
Description: NMDA potentiation in mammalian cells which expressed NMDA receptors was assessed using the automatic patch-clamp system can be used determine the NAM activity of compounds as described below. An whole cell patch-clamp system can be used determine the PAM activity of compounds as described below.
Automated Patch-Clamp System (OPatch HTX):
In this study, HEK 293 cells stably transfected with glutamate-activated channels of the GRIN1/2A subtype will be used together with submaximal NMDA concentrations (300 μM NMDA, co-application with 8 μM Glycine) to investigate the negative allosteric modulation of the test compounds.
In general, cells will be passaged at a confluence of about 80% to […]. For electrophysiological measurements cells will be harvested at a confluence of about 80% to 90% from sterile culture flasks containing culture complete medium. Cells will be transferred as suspension in PBS to the QPatch 16X or QPatch HTX system to the centrifuge/washer directly.
Standard Laboratory Conditions: Cells will be incubated at 37° C. in a humidified atmosphere with 5% CO2 (rel. humidity about 95%).
Culture media: The cells will be continuously maintained in and passaged in sterile culture flasks containing a 1:1 mixture of Dulbecco's modified eagle medium and nutrient mixture F-12 (D-MEM/F-12 1×, liquid, with L-Glutamine) supplemented with 10% fetal bovine serum, 1% Penicillin/Streptomycin solution, and 50 μM AP-5 blocker.
Antibiotics: The complete medium as indicated above is supplemented with 100 μg/mL hygromycin, 15 μg/mL blasticidin and 1 μg/mL puromycin.
Induction of Expression: 2.5 μg/mL tetracycline is added 24 h before start of experiments.
Dose levels are in terms of test compounds, as supplied. Vehicle will be added to achieve a stock concentration of 10 mM (storage at −10° C. to −30° C.). A further stock solutions of 1.0 mM will be prepared in DMSO. Details of stock solution usage (thawing, dose formulations) will be documented in the raw data. The time period of stock solution usage will be detailed in the report.
Test Compound Concentrations
One test concentration of 1.0 μM will be tested.
All test solutions will be prepared by diluting the stock solutions with either Mg-free bath solution only or Mg-free bath solution containing NMDA (300 μM) and glycine (8.0 μM) shortly prior to the electrophysiological experiments and kept at room temperature (19° C. to 30° C.) when in use. 0.1% DMSO will be used as vehicle.
Frequency of preparation: For each test concentration, fresh solutions of test compounds will be prepared every day.
Stability of dose formulation: All preparation times will be documented in the raw data. Any observations regarding instability of test compounds will be mentioned in the raw data.
Storage of dose formulation: On the day of experimentation dose formulations will be maintained at room temperature (19° C. to 30° C.) when in use.
For preparing the experiments and for formation of the giga-ohm-seal, the following standard bath solution will be used:
Sodium Chloride: 137 mM; Potassium Chloride: 4 mM; Calcium Chloride: 1.8 mM; Magnesium Chloride: 1 mM; HEPES: 10 mM; D-Glucose: 10 mM; Cremophor: 0.02%; pH (NaOH): 7.4
The 1× bath solution will be prepared by diluting 10× bath solution without Glucose and 100× Glucose solution with water at least every 7 days. Both stock solutions have been prepared prior to the experimental start of the present study and stored at 1° C. to 9° C. (10× bath solution) or −10° C. to −30° (100× Glucose solution). The batch number(s) of the bath solution(s) used in the experiments will be documented in the raw data. When in use, the 1× bath solution will be kept at room temperature (19° C. to 30° C.). When not in use, the 1× bath solution will be stored at 1° C. to 9° C.
After the giga-seal was formed the following Mg-free bath solution will be used:
Sodium Chloride: 137 mM; Potassium Chloride: 4 mM; Calcium Chloride; 2.8 mM; HEPES: 10 mM; D-Glucose: 10 mM; Cremophor: 0.02%; pH (NaOH): 7.4 […]

Sequence of glutamate-activated channels of the GRIN1/2A subtype stably transfected in HEK 293 cells (Q12879 whole entry, looked up, other chains not shown): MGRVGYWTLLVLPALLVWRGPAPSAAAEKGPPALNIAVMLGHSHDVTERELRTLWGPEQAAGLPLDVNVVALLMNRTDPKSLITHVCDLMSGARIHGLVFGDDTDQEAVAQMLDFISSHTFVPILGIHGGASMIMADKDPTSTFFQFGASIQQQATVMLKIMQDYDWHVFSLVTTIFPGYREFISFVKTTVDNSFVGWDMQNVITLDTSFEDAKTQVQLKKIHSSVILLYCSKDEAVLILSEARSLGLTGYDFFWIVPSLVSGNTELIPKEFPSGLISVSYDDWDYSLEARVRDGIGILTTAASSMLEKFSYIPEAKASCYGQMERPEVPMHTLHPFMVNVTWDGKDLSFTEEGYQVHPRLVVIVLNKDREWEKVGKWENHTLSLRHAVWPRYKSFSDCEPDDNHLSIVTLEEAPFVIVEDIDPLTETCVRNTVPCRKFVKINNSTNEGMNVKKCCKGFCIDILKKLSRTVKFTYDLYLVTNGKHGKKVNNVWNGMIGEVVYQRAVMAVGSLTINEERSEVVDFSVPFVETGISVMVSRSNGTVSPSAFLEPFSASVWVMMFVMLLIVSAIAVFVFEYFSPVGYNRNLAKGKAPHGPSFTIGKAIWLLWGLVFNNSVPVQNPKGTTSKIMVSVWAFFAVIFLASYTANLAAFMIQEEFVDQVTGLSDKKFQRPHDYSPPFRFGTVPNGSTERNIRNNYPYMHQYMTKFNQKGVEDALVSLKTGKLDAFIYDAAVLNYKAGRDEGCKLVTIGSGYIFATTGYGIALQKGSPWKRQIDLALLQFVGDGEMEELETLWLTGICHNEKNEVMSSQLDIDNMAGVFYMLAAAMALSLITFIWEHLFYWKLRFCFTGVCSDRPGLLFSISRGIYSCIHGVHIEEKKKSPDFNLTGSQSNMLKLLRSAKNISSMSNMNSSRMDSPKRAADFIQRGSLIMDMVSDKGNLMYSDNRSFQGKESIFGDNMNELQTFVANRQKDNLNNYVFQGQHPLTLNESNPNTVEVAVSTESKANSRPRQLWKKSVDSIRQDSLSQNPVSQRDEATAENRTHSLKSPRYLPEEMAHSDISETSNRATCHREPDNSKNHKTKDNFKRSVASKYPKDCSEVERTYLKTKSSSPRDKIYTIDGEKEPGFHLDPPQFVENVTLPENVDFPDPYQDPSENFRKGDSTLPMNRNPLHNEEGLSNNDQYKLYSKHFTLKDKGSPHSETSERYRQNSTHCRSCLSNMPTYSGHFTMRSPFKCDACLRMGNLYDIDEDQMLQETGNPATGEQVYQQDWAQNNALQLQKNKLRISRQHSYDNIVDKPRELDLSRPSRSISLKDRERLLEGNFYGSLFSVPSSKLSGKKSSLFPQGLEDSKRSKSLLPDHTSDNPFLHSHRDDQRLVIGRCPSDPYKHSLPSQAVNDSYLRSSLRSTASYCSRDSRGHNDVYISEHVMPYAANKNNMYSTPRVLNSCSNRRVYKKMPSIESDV

CC[C@H](O)[C@@H](C)[C@H]1CC[C@H]2[C@@H]3CC[C@H]4C[C@](O)(CC)CC[C@]4(C)[C@H]3CC[C@]12C [Compound 21, (3S,5S,8R,9S,10S,13S,14S,17R)-3-ethyl-17-((2S,3S)-3-hydroxypentan-2-yl)-10,13-dimethylhexadecahydro-1H-cyclopenta[a]phenanthren-3-ol] and CC[C@]1(O)CC[C@@]2(C)[C@@H](CC[C@@H]3[C@@H]2CC[C@]2(C)[C@@H]([C@H](C)[C@H](C)O)CC[C@@H]32)C1 [Compound 50, (3S,5S,8R,9S,10S,13S,14S,17R)-3-ethyl-17-((2S,3S)-3-hydroxybutan-2-yl)-10,13-dimethylhexadecahydro-1H-cyclopenta[a]phenanthren-3-ol] fall in the same range of activation at 1 µM: -40 to -10% for the first, -40 to -10% for the second.

First: C[C@@H]([C@H]1CC[C@H]2[C@@H]3CC[C@H]4C[C@](O)(C(F)(F)F)CC[C@]4(C)[C@H]3CC[C@]12C)[C@@H](C)O [Compound 22, (3S,5S,8R,9S,10S,13S,14S,17R)-17-((2S,3R)-3-hydroxybutan-2-yl)-10,13-dimethyl-3-(trifluoromethyl)hexadecahydro-1H-cyclopenta[a]phenanthren-3-ol]
Second: C[C@H]([C@@H](O)C(F)(F)F)[C@H]1CC[C@H]2[C@@H]3CC[C@@H]4C[C@@](C)(O)CC[C@]4(C)[C@H]3CC[C@]12C [Compound 57, (3S,5R,8R,9S,10S,13S,14S,17R)-3,10,13-trimethyl-17-((2S,3R)-4,4,4-trifluoro-3-hydroxybutan-2-yl)hexadecahydro-1H-cyclopenta[a]phenanthren-3-ol]
The activation at 1 µM of the first is higher: -10 to 10% for the first, less than -40% for the second.

COC[C@]1(O)CC[C@@]2(C)C(=CC[C@H]3[C@@H]4CC[C@H]([C@H](C)[C@H](O)C(F)(F)F)[C@@]4(C)CC[C@@H]32)C1 [Compound 39, (3S,8S,9S,10R,13S,14S,17R)-3-(methoxymethyl)-10,13-dimethyl-17-((2S,3S)-4,4,4-trifluoro-3-hydroxybutan-2-yl)-2,3,4,7,8,9,10,11,12,13,14,15,16,17-tetradecahydro-1H-cyclopenta[a]phenanthren-3-ol] and CC[C@]1(O)CC[C@@]2(C)C(=CC[C@H]3[C@@H]4CC[C@H]([C@H](C)[C@@H](O)C(F)(F)F)[C@@]4(C)CC[C@@H]32)C1 [Compound 62, (3S,8S,9S,10R,13S,14S,17R)-3-ethyl-10,13-dimethyl-17-((2S,3R)-4,4,4-trifluoro-3-hydroxybutan-2-yl)-2,3,4,7,8,9,10,11,12,13,14,15,16,17-tetradecahydro-1H-cyclopenta[a]phenanthren-3-ol] fall in the same range of activation at 1 µM: -40 to -10% for the first, -40 to -10% for the second.

CC#CC[C@H](O)[C@@H](C)[C@H]1CC[C@H]2[C@@H]3CC[C@H]4C[C@](O)(CC)CC[C@]4(C)[C@H]3CC[C@]12C [Compound 41, (3S,5S,8R,9S,10S,13S,14S,17R)-3-ethyl-17-((2S,3S)-3-hydroxyhept-5-yn-2-yl)-10,13-dimethylhexadecahydro-1H-cyclopenta[a]phenanthren-3-ol] and CC[C@]1(O)CC[C@@]2(C)[C@H](CC[C@@H]3[C@@H]2CC[C@]2(C)[C@@H]([C@H](C)[C@@H](O)CCC(C)C)CC[C@@H]32)C1 [Compound 64, (3S,5R,8R,9S,10S,13S,14S,17R)-3-ethyl-17-((2S,3S)-3-hydroxy-6-methylheptan-2-yl)-10,13-dimethylhexadecahydro-1H-cyclopenta[a]phenanthren-3-ol] fall in the same range of activation at 1 µM: -40 to -10% for the first, -40 to -10% for the second.

CC[C@]1(O)CC[C@@]2(C)[C@H](CC[C@@H]3[C@@H]2CC[C@]2(C)[C@@H]([C@H](C)[C@@H](O)C(F)(F)F)CC[C@@H]32)C1 [Compound 43, (3S,5R,8R,9S,10S,13S,14S,17R)-3-ethyl-10,13-dimethyl-17-((2S,3R)-4,4,4-trifluoro-3-hydroxybutan-2-yl)hexadecahydro-1H-cyclopenta[a]phenanthren-3-ol] and CC[C@]1(O)CC[C@@]2(C)[C@H](CC[C@@H]3[C@@H]2CC[C@]2(C)[C@@H]([C@H](C)[C@H](O)C(F)(F)F)CC[C@@H]32)C1 [Compound 56, (3S,5R,8R,9S,10S,13S,14S,17R)-3-ethyl-10,13-dimethyl-17-((2S,3S)-4,4,4-trifluoro-3-hydroxybutan-2-yl)hexadecahydro-1H-cyclopenta[a]phenanthren-3-ol] cannot be ordered by activation at 1 µM: less than -40% for the first, less than -40% for the second.

COC[C@]1(O)CC[C@H]2[C@H](CC[C@@H]3[C@@H]2CC[C@]2(C)[C@@H]([C@H](C)[C@@H](O)C(F)(F)F)CC[C@@H]32)C1 [Compound 45, (3S,5R,8R,9R,10S,13S,14S,17R)-3-(methoxymethyl)-13-methyl-17-((2S,3R)-4,4,4-trifluoro-3-hydroxybutan-2-yl)hexadecahydro-1H-cyclopenta[a]phenanthren-3-ol] and COC[C@]1(O)CC[C@H]2[C@H](CC[C@@H]3[C@@H]2CC[C@]2(C)[C@@H]([C@H](C)[C@H](O)C(F)(F)F)CC[C@@H]32)C1 [Compound 48, (3S,5R,8R,9R,10S,13S,14S,17R)-3-(methoxymethyl)-13-methyl-17-((2S,3S)-4,4,4-trifluoro-3-hydroxybutan-2-yl)hexadecahydro-1H-cyclopenta[a]phenanthren-3-ol] fall in the same range of activation at 1 µM: -40 to -10% for the first, -40 to -10% for the second.

C[C@H]([C@@H](O)C(F)(F)F)[C@H]1CC[C@H]2[C@@H]3CC=C4C[C@](O)(C(F)(F)F)CC[C@]4(C)[C@H]3CC[C@]12C [Compound 53, (3S,8S,9S,10R,13S,14S,17R)-10,13-dimethyl-17-((2S,3R)-4,4,4-trifluoro-3-hydroxybutan-2-yl)-3-(trifluoromethyl)-2,3,4,7,8,9,10,11,12,13,14,15,16,17-tetradecahydro-1H-cyclopenta[a]phenanthren-3-ol] and CC[C@]1(O)CC[C@@]2(C)[C@@H](CC[C@@H]3[C@@H]2CC[C@]2(C)[C@@H]([C@H](C)[C@@H](O)C(C)C)CC[C@@H]32)C1 [Compound 65, (3S,5S,8R,9S,10S,13S,14S,17R)-3-ethyl-17-((2S,3S)-3-hydroxy-4-methylpentan-2-yl)-10,13-dimethylhexadecahydro-1H-cyclopenta[a]phenanthren-3-ol] fall in the same range of activation at 1 µM: -40 to -10% for the first, -40 to -10% for the second.

CC[C@]1(O)CC[C@@]2(C)[C@@H](CC[C@@H]3[C@@H]2CC[C@]2(C)[C@@H]([C@H](C)[C@@H](O)c4ccccc4)CC[C@@H]32)C1 [Compound 55, (3S,5S,8R,9S,10S,13S,14S,17R)-3-ethyl-17-((1R,2S)-1-hydroxy-1-phenylpropan-2-yl)-10,13-dimethylhexadecahydro-1H-cyclopenta[a]phenanthren-3-ol] and CC[C@]1(O)CC[C@@]2(C)[C@@H](CC[C@@H]3[C@@H]2CC[C@]2(C)[C@@H]([C@H](C)[C@H](O)C4CCCC4)CC[C@@H]32)C1 [Compound 58, (3S,5S,8R,9S,10S,13S,14S,17R)-17-((1R,2S)-1-cyclopentyl-1-hydroxypropan-2-yl)-3-ethyl-10,13-dimethylhexadecahydro-1H-cyclopenta[a]phenanthren-3-ol] fall in the same range of activation at 1 µM: -40 to -10% for the first, -40 to -10% for the second.

— patent US11613556B2, “Oxysterols and methods of use thereof” (Sage Therapeutics, Inc., priority 2016, dated 2023)
